Experimental data: US20260199564A1, “METHOD OF PREVENTING BLOOD COAGULATION AND DRUG-ELUTING IMPLANT FOR PERCUTANEOUS CORONARY INTERVENTION” (priority 2023, published 2026)

Key:
hERG channel = target: T1, hERG channel (Homo sapiens, UniProt Q12809); assay: Predictor hERG fluorescence polarization (FP) binding assay
T1 construct: purchased
Procedure: • a. Primary stock solutions of 3 mM CK and astemizole in 100% DMSO were diluted in 3-fold serial dilutions in the same solvent to obtain 16 different concentrations ranging from 3 mM to […]. These solutions were further diluted 25-fold with FP (fluorescence polarization) assay buffer and then transferred to the assay plate. • b. Each test solution in the assay plate was further diluted 4-fold with FP assay buffer. Predictor™ hERG membrane preparations were thawed at room temperature and sonicated. Predictor™ hERG Tracer Red (250 nM) was diluted to 4 nM with hERG FP assay buffer. All experiments were performed in FP assay buffer containing […].
• a. The FP assay was carried out using Predictor™ hERG Fluorescence Polarization Assay Kit. The binding assay was conducted following the manufacturer's recommended protocol with some modifications. Aliquots (5 μL) of each concentration of test article of reference were pipetted into the appropriate wells of a black 384-well micro-plate containing 10 μL of hERG membrane and 5 μL of 4 nM fluorescent tracer and covered with plate lid to protect the reagents exposed to from light. • b. The experiments were performed using triplicate wells for each concentration. Following a 3-hour incubation at room temperature, the microplates were read on a Tecan Infinite® F200 plate reader using polarized excitation filter setting at 535 nm and emission filter setting at 590 nm (25 and 20 nm bandwidths, respectively). Assay robustness was assessed by measuring 16 replicates positive control wells (containing 30 μM E-4031, known hERG channel blocker, in FP assay mixture) and negative control wells (no hERG channel blocker in FP assay mixture).
• a. To evaluate the robustness of the hERG assays, the signal-to-noise ratio was quantified by calculating Z′-factor for each assay. In statistics, the Z′-factor provides a way to evaluate the quality of the assay. […]. Z′-factor values were determined using the blank subtracted polarization values from 16 wells of • negative and positive controls using the formula of Zhang et al. […]

CYP1A2 = target: T2, CYP1A2 (Homo sapiens, UniProt P05177); assay: Cytochrome P450 inhibition in human liver microsomes using LC-MS/MS, CYP1A2; type: in vitro ADME
T2 construct: with pooled human liver microsomes; from tissue; host or cells: pooled human liver microsomes
T2 sequence (P05177 1-516): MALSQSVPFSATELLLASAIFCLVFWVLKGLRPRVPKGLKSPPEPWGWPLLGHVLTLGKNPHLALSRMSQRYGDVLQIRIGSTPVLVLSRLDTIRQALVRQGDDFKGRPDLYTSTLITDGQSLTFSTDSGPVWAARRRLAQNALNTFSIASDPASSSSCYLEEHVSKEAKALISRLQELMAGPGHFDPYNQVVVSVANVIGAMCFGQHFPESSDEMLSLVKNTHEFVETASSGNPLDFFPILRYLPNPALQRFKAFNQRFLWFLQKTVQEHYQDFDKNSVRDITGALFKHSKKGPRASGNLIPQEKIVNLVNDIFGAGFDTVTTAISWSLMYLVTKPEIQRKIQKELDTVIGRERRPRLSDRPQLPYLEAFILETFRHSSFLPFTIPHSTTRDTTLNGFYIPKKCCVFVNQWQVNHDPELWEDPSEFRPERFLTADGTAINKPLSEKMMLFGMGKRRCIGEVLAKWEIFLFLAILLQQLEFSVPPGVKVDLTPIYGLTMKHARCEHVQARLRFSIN
Procedure: (§1) In IC50 shift experiments, CK (0.2 μL prepared in DMSO) was pre-incubated for 30 min at 37° C., at 8 different concentrations, with pooled human liver microsomes (0.1-1 mg/mL, depending on which enzyme was assessed) in the absence or presence of 1 mM NADPH in 100 μL of potassium phosphate buffer (100 mM, pH 7.4) and MgCl2 (2.5 mM). After the pre-incubation, a substrate mixture containing a probe substrate in 100 μL of potassium phosphate buffer (100 mM, pH 7.4), MgCl2 (2.5 mM), and NADPH (1 mM) was added for measurement of the corresponding P450 activities. Incubations were terminated by addition of 200 μL methanol. Samples were then extracted and centrifuged and the supernatant was subjected to validated LC-MS/MS analysis.

CYP2C9 = target: T3, CYP2C9 (Homo sapiens, UniProt P11712); assay: Cytochrome P450 inhibition in human liver microsomes using LC-MS/MS, CYP2C9; type: in vitro ADME
T3 construct: with pooled human liver microsomes; from tissue; host or cells: pooled human liver microsomes
Procedure: as §1

CYP2C19 = target: T4, CYP2C19 (Homo sapiens, UniProt P33261); assay: Cytochrome P450 inhibition in human liver microsomes using LC-MS/MS, CYP2C19; type: in vitro ADME
T4 construct: with pooled human liver microsomes; from tissue; host or cells: pooled human liver microsomes
Procedure: as §1

CYP3A4 = target: T5, CYP3A4 (Homo sapiens, UniProt P08684); assay: Cytochrome P450 inhibition in human liver microsomes using LC-MS/MS, CYP3A4; type: in vitro ADME; conditions: for IC50 shift (fold difference): ratio of IC50 with −NADPH to IC50 with +NADPH in the 30 min pre-incubation; for IC50: pooled human liver microsomes
T5 construct: with pooled human liver microsomes; from tissue; host or cells: pooled human liver microsomes
Procedure: as §1

TNF-α = assay: LPS-induced TNF-α expression in HUVECs; type: cell-based, human; conditions: 1, 3, 10 μM for 1 h prior to LPS (1 μg/ml) stimulation for 24 h
Procedure: HUVECs were treated for 1 h with ginsenoside CK (1 μM, 3 μM, and 10 μM) prior to LPS (1 μg/ml) stimulation for 24 h (A) IL-6 (B) TNF-αexpression. Values are means±SEM of 3 independent experiments. Statistical significance assessed by one-way ANOVA followed by Scheffe post-hoc test for multiple comparisons (***P<0.01, *P<0.05 vs LPS).
Treatment of HUVECs with LPS (1 μg/ml) increased IL-6 and TNF-αexpression. To determine whether LPS-induced IL-6 and TNF-αexpression was affected by ginsenoside CK, HUVECs were treated for 1 h with ginsenoside CK (1 μM, 3 μM, and 10 μM) prior to LPS (1 μg/ml) stimulation for 24 h.

[1] = Releasing kinetics of ginsenoside CK from two-layer coated balloon (CK DEB), FIG. 4; type: physicochemical
[2] = 50 μM, 30 min pre-incubation in the presence or absence of NADPH

T1 sequence (Q12809 whole entry): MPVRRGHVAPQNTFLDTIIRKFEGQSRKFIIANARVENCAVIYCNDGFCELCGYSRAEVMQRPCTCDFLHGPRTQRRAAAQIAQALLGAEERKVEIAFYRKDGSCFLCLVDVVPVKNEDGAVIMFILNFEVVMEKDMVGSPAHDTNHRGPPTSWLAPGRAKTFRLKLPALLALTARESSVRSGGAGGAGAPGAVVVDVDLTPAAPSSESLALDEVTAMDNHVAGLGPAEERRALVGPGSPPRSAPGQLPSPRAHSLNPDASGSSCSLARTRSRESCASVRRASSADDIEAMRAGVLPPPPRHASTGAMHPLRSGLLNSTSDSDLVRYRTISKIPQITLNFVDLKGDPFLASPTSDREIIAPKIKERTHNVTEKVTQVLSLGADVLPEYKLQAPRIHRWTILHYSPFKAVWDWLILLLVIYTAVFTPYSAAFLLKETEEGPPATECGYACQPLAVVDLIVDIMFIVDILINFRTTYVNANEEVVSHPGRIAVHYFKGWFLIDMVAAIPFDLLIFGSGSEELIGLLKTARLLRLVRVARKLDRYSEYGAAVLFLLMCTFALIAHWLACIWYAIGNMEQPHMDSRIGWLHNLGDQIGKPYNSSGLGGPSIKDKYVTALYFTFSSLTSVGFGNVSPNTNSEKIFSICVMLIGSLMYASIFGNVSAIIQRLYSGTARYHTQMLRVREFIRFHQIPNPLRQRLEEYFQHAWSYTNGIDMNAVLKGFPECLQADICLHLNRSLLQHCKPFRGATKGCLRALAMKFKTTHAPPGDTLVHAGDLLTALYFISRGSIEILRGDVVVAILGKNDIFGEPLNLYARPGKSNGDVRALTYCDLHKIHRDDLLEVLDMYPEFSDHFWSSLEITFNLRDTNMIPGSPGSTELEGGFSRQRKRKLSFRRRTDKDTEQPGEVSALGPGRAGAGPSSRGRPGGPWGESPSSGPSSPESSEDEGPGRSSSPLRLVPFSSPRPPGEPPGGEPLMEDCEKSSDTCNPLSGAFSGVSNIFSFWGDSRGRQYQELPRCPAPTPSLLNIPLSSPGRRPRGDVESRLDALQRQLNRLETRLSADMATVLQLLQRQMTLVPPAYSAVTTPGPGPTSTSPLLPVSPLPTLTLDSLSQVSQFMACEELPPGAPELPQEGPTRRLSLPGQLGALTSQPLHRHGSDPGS
T5 sequence (P08684 whole entry): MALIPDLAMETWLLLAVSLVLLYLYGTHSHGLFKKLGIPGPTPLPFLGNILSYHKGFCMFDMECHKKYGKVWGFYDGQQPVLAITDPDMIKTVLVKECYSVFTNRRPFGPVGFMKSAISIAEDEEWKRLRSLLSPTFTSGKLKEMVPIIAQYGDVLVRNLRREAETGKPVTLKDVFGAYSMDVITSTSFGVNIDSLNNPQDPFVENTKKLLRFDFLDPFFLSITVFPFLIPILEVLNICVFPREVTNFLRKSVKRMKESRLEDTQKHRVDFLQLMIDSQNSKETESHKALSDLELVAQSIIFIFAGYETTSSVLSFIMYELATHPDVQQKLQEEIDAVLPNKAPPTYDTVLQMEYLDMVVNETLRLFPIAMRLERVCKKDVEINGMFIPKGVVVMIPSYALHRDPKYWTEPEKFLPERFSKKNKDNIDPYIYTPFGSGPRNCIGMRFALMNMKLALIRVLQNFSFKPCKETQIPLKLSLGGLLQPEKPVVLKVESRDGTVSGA
T3 sequence (P11712 whole entry): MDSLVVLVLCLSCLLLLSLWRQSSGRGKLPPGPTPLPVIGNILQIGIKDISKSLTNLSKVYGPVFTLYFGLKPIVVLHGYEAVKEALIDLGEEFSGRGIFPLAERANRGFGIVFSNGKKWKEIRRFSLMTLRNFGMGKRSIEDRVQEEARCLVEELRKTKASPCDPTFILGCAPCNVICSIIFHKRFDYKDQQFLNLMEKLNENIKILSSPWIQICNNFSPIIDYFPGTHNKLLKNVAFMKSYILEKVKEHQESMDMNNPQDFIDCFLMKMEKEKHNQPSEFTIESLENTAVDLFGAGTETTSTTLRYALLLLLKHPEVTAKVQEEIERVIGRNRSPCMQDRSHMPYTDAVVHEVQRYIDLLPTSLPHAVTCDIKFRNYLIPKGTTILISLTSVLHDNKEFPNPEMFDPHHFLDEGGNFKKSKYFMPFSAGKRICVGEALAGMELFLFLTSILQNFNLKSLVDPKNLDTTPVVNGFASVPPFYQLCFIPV
T4 sequence (P33261 whole entry): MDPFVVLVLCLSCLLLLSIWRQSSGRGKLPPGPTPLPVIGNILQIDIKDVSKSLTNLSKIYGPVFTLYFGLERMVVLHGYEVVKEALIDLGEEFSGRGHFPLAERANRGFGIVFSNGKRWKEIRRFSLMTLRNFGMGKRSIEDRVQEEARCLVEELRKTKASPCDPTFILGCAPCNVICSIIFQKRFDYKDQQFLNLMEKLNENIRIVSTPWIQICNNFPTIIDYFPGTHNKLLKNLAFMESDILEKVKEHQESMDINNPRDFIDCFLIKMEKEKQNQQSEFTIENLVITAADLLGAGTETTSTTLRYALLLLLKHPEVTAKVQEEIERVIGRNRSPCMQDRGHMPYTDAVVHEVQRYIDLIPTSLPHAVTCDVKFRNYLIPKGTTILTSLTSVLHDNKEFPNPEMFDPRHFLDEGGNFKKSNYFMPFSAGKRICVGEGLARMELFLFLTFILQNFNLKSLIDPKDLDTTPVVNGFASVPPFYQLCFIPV

For `CC(C)=CCC[C@](C)(O[C@@H]1O[C@H](CO)[C@@H](O)[C@H](O)[C@H]1O)[C@H]1CC[C@]2(C)[C@@H]1[C@H](O)C[C@@H]1[C@@]3(C)CC[C@H](O)C(C)(C)[C@@H]3CC[C@]12C` [CK, Ginsenoside compound K], the “blocking effect for binding of tracer to the hERG membrane protein” value (hERG channel; at 30 μM, triplicate measurements) was “minor blocking effect”, the “risk classification of potency for hERG blocker” value (hERG channel; classified from IC50) was “weak ligand” and the IC50 (hERG channel; hERG FP assay, triplicate measurements) was > 30 µM. For the same compound, the “inhibition at concentration of 50 μM” value (CYP1A2; [2]) was “did not inhibit”, the IC50 (CYP1A2; pooled human liver microsomes, substrate Phenacetin) was > 50 µM and the “inhibition at concentration of 50 μM” value (CYP2C9; [2]) was “did not inhibit”. For the same compound, the IC50 (CYP2C9; pooled human liver microsomes, substrate Diclofenac) was > 50 µM, the “inhibition at concentration of 50 μM” value (CYP2C19; [2]) was “did not inhibit” and the IC50 (CYP2C19; pooled human liver microsomes, substrate S-Mephenytoin) was > 50 µM. The “IC50 shift (fold difference)” value (CYP3A4; CYP3A4(M), midazolam as substrate) was 0.98 fold, the “IC50 shift (fold difference)” value (CYP3A4; CYP3A4(T), testosterone as substrate) was 1.06 fold and the IC50 (CYP3A4; substrate Midazolam) was 9.76 µM. The IC50 (CYP3A4; substrate Testosterone) was 13.9 µM, the “LPS-induced TNF-α expression” value (TNF-α) was “significantly decreased” and the “amount of residual drug” value ([1]; after 90 days of drug release) was “beyond the detection/quantitation limit”. For the same compound, the “drug released (initial burst)” value ([1]; within one month) was ~80%.
